Experimental findings from PubChem BioAssay (NCI) are described below.

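The compound was tested at five concentrations on cells cultured in 96-well plates, with a 48-hour exposure period. GI50: concentration for 50% inhibition of growth. The concentration for full growth arrest is given as TGI.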 Some results are limits rather than exact numbers.

Among the test systems are CAKI-1 renal; KM12 colon; RPMI-8226 leukemia; CCRF-CEM leukemia; NCI-H522 lung; SK-MEL-5 melanoma; A498 renal; HCT-15 colon; SR leukemia; SK-MEL-28 melanoma.
Common to all, as to experiment: DTP human tumour cell line panel, 48 h

One may read the GI50 as the concentration giving 50% growth inhibition. A word on the TGI: it is the concentration at which net growth stops. High values mean less potent growth arrest, low ones more potent growth arrest. Turning to `S=c1nc(/C=C/c2ccc(Cl)c(Cl)c2)[nH][nH]1`, the figures for the GI50 in the assay on CAKI-1 renal, in the assay on RPMI-8226 leukemia and in the assay with SR leukemia were 70000 nM, 51.4 µM and 22.7 µM, respectively. For the same compound, the TGI in the assay with CAKI-1 renal, with KM12 colon, in the assay on RPMI-8226 leukemia, with CCRF-CEM leukemia, in the assay on NCI-H522 lung and in the assay on SK-MEL-5 melanoma was over 100 µM throughout. In addition, the TGI in the assay with A498 renal, in the assay with HCT-15 colon, in the assay on SR leukemia and with SK-MEL-28 melanoma was over 100 µM each time.

As for `c1ccc(COc2ccc(Nc3ncnc4ccc(-c5ccco5)cc34)cc2)cc1`, the GI50 in the assay on CAKI-1 renal was 2190 nM; in the assay on KM12 colon it was 6.09 µM; in the assay on RPMI-8226 leukemia, 5.5 µM; in the assay on CCRF-CEM leukemia, 7.76 µM; in the assay with NCI-H522 lung, 4.84 µM; in the assay with SK-MEL-5 melanoma, 2.96 µM. For the same compound, the GI50 is 5.39 µM with A498 renal, 4.3 µM in the assay on HCT-15 colon, 6.7 µM with SR leukemia and 9.51 µM in the assay with SK-MEL-28 melanoma. Further, the TGI with CAKI-1 renal is over 25 µM; in the assay with KM12 colon, 14.7 µM; with RPMI-8226 leukemia, 20.2 µM; in the assay on CCRF-CEM leukemia it was over 25 µM; in the assay with NCI-H522 lung, 15.1 µM; with SK-MEL-5 melanoma, 6.79 µM. Further, the TGI with A498 renal is over 21.6 µM; in the assay on HCT-15 colon, 12.3 µM; in the assay with SR leukemia, over 25 µM; in the assay with SK-MEL-28 melanoma, over 25 µM.

As to `C#CCSc1nnnn1-c1ccc(Br)c(C)c1`, the GI50 is 2820 nM with CAKI-1 renal; 35 µM with KM12 colon; 22.5 µM in the assay on RPMI-8226 leukemia; 29.5 µM in the assay with CCRF-CEM leukemia; 19.1 µM in the assay with NCI-H522 lung; 16.5 µM in the assay on SK-MEL-5 melanoma. Moreover, the GI50 was 18.9 µM in the assay on A498 renal, 29 µM with HCT-15 colon, 19.8 µM in the assay with SR leukemia and 50.1 µM in the assay with SK-MEL-28 melanoma. Besides, the TGI in the assay with CAKI-1 renal is 17.6 µM; in the assay on KM12 colon, over 100 µM; in the assay with RPMI-8226 leukemia, 74 µM; with CCRF-CEM leukemia, over 100 µM; in the assay with NCI-H522 lung it was 79.4 µM; in the assay on SK-MEL-5 melanoma, 33.9 µM. Besides, the TGI is 81.1 µM with A498 renal, over 100 µM in the assay on HCT-15 colon, over 100 µM in the assay on SR leukemia and over 100 µM in the assay with SK-MEL-28 melanoma.

For the compound `CCOC(=O)/C(=C/c1c(-c2ccccc2)[nH]c2ccccc12)C(=O)c1ccc(Cl)cc1`, the GI50 in the assay on CAKI-1 renal is 4120 nM; with KM12 colon, 3.29 µM; in the assay with RPMI-8226 leukemia it was 2.92 µM; with CCRF-CEM leukemia it was 2.73 µM; in the assay with NCI-H522 lung, 5.86 µM; with SK-MEL-5 melanoma, 1.78 µM. The GI50 with A498 renal was 8.81 µM; in the assay on HCT-15 colon, 4.06 µM; in the assay on SR leukemia, 3.14 µM; with SK-MEL-28 melanoma it was 5.26 µM. Further, the TGI was over 100 µM in the assay on CAKI-1 renal; over 100 µM with KM12 colon; over 100 µM in the assay on RPMI-8226 leukemia; over 100 µM in the assay on CCRF-CEM leukemia; over 100 µM in the assay with NCI-H522 lung; 4.1 µM in the assay with SK-MEL-5 melanoma. Besides, the TGI was over 100 µM with A498 renal, over 100 µM in the assay on HCT-15 colon, 6.42 µM with SR leukemia and over 100 µM with SK-MEL-28 melanoma.

For `COc1cc2c(c(Br)c1N)-c1cc(Br)c(N)cc1C2=O`, the GI50 is over 100000 nM in the assay with CAKI-1 renal; over 85.1 µM in the assay on KM12 colon; over 100 µM with RPMI-8226 leukemia; over 100 µM with CCRF-CEM leukemia; 9.15 µM with NCI-H522 lung; 5.39 µM with SK-MEL-5 melanoma. For the same compound, the GI50 with A498 renal is over 61.7 µM; with HCT-15 colon, over 100 µM; in the assay with SR leukemia, 0.0592 µM; with SK-MEL-28 melanoma it was over 100 µM. Also, the TGI in the assay with CAKI-1 renal is over 100 µM; in the assay on KM12 colon, over 100 µM; in the assay with RPMI-8226 leukemia, over 100 µM; with CCRF-CEM leukemia it was over 100 µM; with NCI-H522 lung it was 59.6 µM; in the assay with SK-MEL-5 melanoma, over 100 µM. Besides, the TGI in the assay on A498 renal, in the assay with HCT-15 colon, with SR leukemia and in the assay on SK-MEL-28 melanoma was over 100 µM each time.

As to `COc1ccc(C2=NN(c3ccc(S(N)(=O)=O)cc3)C(c3ccc(Cl)cc3)C2)c(O)c1` (stereo not drawn), the GI50 in the assay with CAKI-1 renal is 2670 nM; in the assay on KM12 colon it was 2.67 µM; in the assay on RPMI-8226 leukemia it was 1.84 µM; with CCRF-CEM leukemia, 2.39 µM; in the assay with NCI-H522 lung it was 2.42 µM; with SK-MEL-5 melanoma, 6.24 µM. For the same compound, the GI50 in the assay with A498 renal is 3.89 µM; in the assay on HCT-15 colon, 2.98 µM; in the assay with SR leukemia, 0.897 µM; with SK-MEL-28 melanoma it was 5.06 µM. In addition, the TGI in the assay on CAKI-1 renal turned out to be 8.64 µM; with KM12 colon, 7.91 µM; in the assay on RPMI-8226 leukemia, 6.71 µM; with CCRF-CEM leukemia it was 6.92 µM; in the assay with NCI-H522 lung, 11.1 µM; with SK-MEL-5 melanoma, 19.1 µM. Moreover, the TGI amounted to 14.5 µM in the assay on A498 renal, 13.9 µM with HCT-15 colon, 3.61 µM with SR leukemia and 18.1 µM in the assay on SK-MEL-28 melanoma.
